Where only a bound is given, the exact number is not on record here.

The target in the first assay is c-Myc template DNA (c-myc quadruplex). The assay is described as follows: Quadruplex binding / stop assay (Taq polymerase arrest, capillary electrophoresis). The note with it: read-out: S DATA; Table 1D, stop assay data.
With `NCCCNC(=O)c1cn2c3c(c(N4CCC(N)C4)c(F)cc3c1=O)Oc1cc3ccccc3cc1-2` (stereo not shown) [compound 1716], the IC50 was found to be 0.75 µM.
For the compound `CC(C)C(CO)Nc1c(F)cc2c(=O)c(C(=O)NCCC3CCCN3C)cn3c2c1Oc1cc2ccccc2cc1-3` (stereo not shown) [compound 1747], the IC50 is greater than 15 µM.
The same measure, in the same setting: the result for `N=C(N)NCCCNC(=O)c1cn2c3c(c(N4CC5CCCNC5C4)c(F)cc3c1=O)Oc1cc3ccccc3cc1-2` (stereo not shown) [compound 1647] reads 1 µM; that for `CN1CCCC1CCNC(=O)c1cn2c3c(c(SCCc4cnccn4)c(F)cc3c1=O)Oc1cc3ccccc3cc1-2` (stereo not shown) [compound 1760], 1.85 µM.
The same measure, in the same setting: the result for `C[C@@H](O)CNc1c(F)cc2c(=O)c(C(=O)NCCC3CCCN3C)cn3c2c1Oc1cc2ccccc2cc1-3` (stereo partly shown) [compound 1682] reads 0.75 µM.
`CN(C)CCCCNC(=O)c1cn2c3c(c(NCCN4CCCC4)c(F)cc3c1=O)Oc1ccccc1-2` [compound 1598]: the IC50 was greater than 15 µM.
Regarding `CN1CCCC1CCNc1ccc2c(=O)c(C(=O)NC3CC(C)(C)NC(C)(C)C3)cn3c2c1Oc1cc2ccccc2cc1-3` (stereo not shown) [compound 1525], the IC50 amounted to 1.75 µM.
Same read-out and setting: the result for `CN1CCCC1CCNC(=O)c1cn2c3c(c(N4CCC(NC(=O)OC(C)(C)C)C4)ccc3c1=O)Oc1cc3ccccc3cc1-2` (stereo not shown) [compound 1535] reads 0.75 µM; that for `O=C(NCCN1CCOCC1)c1cn2c3c(c(NCCN4CCOCC4)ccc3c1=O)Oc1cc3ccccc3cc1-2` [compound 1551], greater than 15 µM; that for `CN1CCCC1CCNC(=O)c1cn2c3c(c(NCCN4CCCCC4)c(F)cc3c1=O)Oc1cc3ccccc3cc1-2` (stereo not shown) [compound 1488], 0.75 µM.
With `N#Cc1ccc2c(c1)-n1cc(C(=O)NCCN3CCOCC3)c(=O)c3cc(F)c(N4CCC(N)C4)c(c31)O2` (stereo not shown) [compound 1793], the IC50 stood at 5.3 µM.
With `CN1CCN(CCCNC(=O)c2cn3c4c(c(NCCN5CCOCC5)c(F)cc4c2=O)Oc2ccccc2-3)CC1` [compound 1606], the IC50 is greater than 15 µM.
On the same count and under the same terms, the result for `CN1CCCC1CCNC(=O)c1cn2c3c(c(NCCCCCO)c(F)cc3c1=O)Oc1cc3ccccc3cc1-2` (stereo not shown) [compound 1658] reads 1.75 µM.
Consider `N=C(N)NCCCCNC(=O)c1cn2c3c(c(NCCN4CCCC4)c(F)cc3c1=O)Oc1cc3ccccc3cc1-2` [compound 1655], for which the IC50 is 1 µM.
As to `CC1(C)CC(NC(=O)c2cn3c4c(c(NCCN5CCCC5)ccc4c2=O)Oc2cc4ccccc4cc2-3)CC(C)(C)N1` [compound 1519], the IC50 was 0.75 µM.
As to `O=C(NCCCN1CCOCC1)c1cn2c3c(c(NCCN4CCOCC4)ccc3c1=O)Oc1cc3ccccc3cc1-2` [compound 1548], the IC50 was greater than 15 µM.
In the case of `CN1CCCC1CCNC(=O)c1cn2c3c(c([S+]([O-])CCc4cnccn4)c(F)cc3c1=O)Oc1cc3ccccc3cc1-2` (stereo not shown) [compound 1769], the IC50 came to 10 µM.
For `CN1CCCC1CCNC(=O)c1cn2c3c(c(S(=O)(=O)CCc4cnccn4)c(F)cc3c1=O)Oc1cc3ccccc3cc1-2` (stereo not shown) [compound 1768], the IC50 was 0.92 µM.
As to `CN1CCCC1CCNC(=O)c1cn2c3c(c(NC4CCCNC4)c(F)cc3c1=O)Oc1cc3ccccc3cc1-2` (stereo not shown) [compound 1490], the IC50 was found to be 0.75 µM.
Take `CN1CCN(CCCNC(=O)c2cn3c4c(c(N5CCC(NC(=O)OC(C)(C)C)C5)c(F)cc4c2=O)Oc2ccccc2-3)CC1` (stereo not shown) [compound 1585]: the IC50 is greater than 15 µM.

The assay is the same for the next values; noted with them: read-out: Stop Data c-Myc μM; concentration at which 50% of the DNA was arrested (arrested:full-length 1:1).
On to `CN1CCN(CCCNc2ccc3c(=O)c(C(=O)NCCN4CCCC4)cn4c3c2Oc2cc3ccccc3cc2-4)CC1` [compound 454], for which the IC50 is 0.75 µM.
The same measure, in the same setting: to `CN1CCCC1CCNC(=O)c1cn2c3cc4c(=O)c5ccccc5c(=O)c4cc3oc3c(NCCCN4CCOCC4)c(F)cc(c1=O)c32` (stereo not shown) [compound 348] belongs 0.9 µM; to `CN1CCCC1CCNC(=O)c1cn2c3c(c(NCC4CCNCC4)c(F)cc3c1=O)Oc1cc3ccccc3cc1-2` (stereo not shown) [compound 252], 1.75 µM; to `CC(C)CC(C)(C)CNC(=O)c1cn2c3c(c(N4CCC(NC(=O)OC(C)(C)C)C4)c(F)cc3c1=O)Oc1cc3ccccc3cc1-2` (stereo not shown) [compound 186], 1.75 µM.
With `CCN(CC)CCCC(C)NC(=O)c1cn2c3c(c(N4CCC(NC(=O)OC(C)(C)C)C4)c(F)cc3c1=O)Oc1cc3ccccc3cc1-2` (stereo not shown) [compound 241], the IC50 was 1.75 µM.
On the same count and under the same terms, to `CN1CCCC1CCNC(=O)c1cn2c3c(c(C4C[C@@H](N)[C@H](c5ccccc5)C4)c(F)cc3c1=O)Oc1cc3ccccc3cc1-2` (stereo partly shown) [compound 458] belongs 0.75 µM.
Still for that read-out and setting: the result for `CN1CCCC1CCNC(=O)c1cn2c3c(c(F)c(F)cc3c1=O)Oc1cc3ccccc3cc1-2` (stereo not shown) [compound 101] reads 2.25 µM; that for `CN1CCN(CCCNC(=O)c2cn3c4cc5c(=O)c6ccccc6c(=O)c5cc4oc4c(NCCCN5CCN(C)CC5)c(F)cc(c2=O)c43)CC1` [compound 350], 0.9 µM; that for `COc1ccc2[nH]cc(CCNC(=O)c3cn4c5c(c(N6CCC(N)C6)c(F)cc5c3=O)Oc3cc5ccccc5cc3-4)c2c1` (stereo not shown) [compound 299], 1.75 µM.
On the same count and under the same terms, to `CN1CCN(CCCNC(=O)c2cn3c4c(c(NC(=O)CCN5CCCC5)c(F)cc4c2=O)Oc2cc4ccccc4cc2-3)CC1` [compound 88] belongs 2.5 µM.
In the case of `CC(C)(C)OC(=O)N[C@H]1CCN(c2c(F)cc3c(=O)c(C(=O)NCCN4CCOCC4)cn4c5cc6c(cc5oc2c34)c(=O)c2ccccc26)C1` [compound 208], the IC50 stood at 1.75 µM.
Same read-out and setting: the result for `CN1CCCC1CCNC(=O)c1cn2c3cc4c(=O)c5ccccc5c(=O)c4cc3oc3c(NCCC4CCCN4C)c(F)cc(c1=O)c32` (stereo not shown) [compound 346] reads 0.9 µM; that for `CN1CCC(N(C)c2c(F)cc3c(=O)c(C(=O)NCCC4CCCN4C)cn4c3c2Oc2cc3ccccc3cc2-4)CC1` (stereo not shown) [compound 257], 1.75 µM.
In the case of `O=C(NCCN1CCOCC1)c1cn2c3cc4c(cc3oc3c(NCCN5CCOCC5)c(F)cc(c1=O)c32)c(=O)c1ccccc14` [compound 321], the IC50 stood at 1 µM.
Still for that read-out and setting: to `N[C@@H]1CCN(c2c(F)cc3c(=O)c(C(=O)N4CCOCC4)cn4c3c2Oc2c-4ccc3ccccc23)C1` [compound 79] belongs 2.5 µM.
On to `N[C@@H]1CCN(c2c(F)cc3c(=O)c(C(=O)NCCCn4ccnc4)cn4c3c2Oc2c-4ccc3ccccc23)C1` [compound 157], for which the IC50 came to 1.75 µM.
Still for that read-out and setting: the result for `CN1CCN(CCCNC(=O)c2cn3c4c(c(N5CC[C@@H](NC(=O)CCN6CCCC6)C5)c(F)cc4c2=O)Oc2cc4c(cc2-3)oc2ccccc24)CC1` [compound 174] reads 1.75 µM; that for `CN1CCCC1CCNC(=O)c1cn2c3c(c(NCC4CCCO4)c(F)cc3c1=O)Oc1cc3ccccc3cc1-2` (stereo not shown) [compound 1471], 5 µM.
On the same count and under the same terms, the result for `CC(=O)N1CCN(C(=O)c2cn3c4c(c(N5CCC(N)C5)c(F)cc4c2=O)Oc2cc4ccccc4cc2-3)CC1` (stereo not shown) [compound 201] reads 1.75 µM; that for `CN1CCC[C@H]1CCNC(=O)c1cn2c3c(c(N4CCC(c5cnccn5)C4)c(F)cc3c1=O)Oc1cc3ccccc3cc1-2` (stereo partly shown) [compound 469], 0.73 µM.
For the compound `CN1CCC[C@@H]1CCNC(=O)c1cn2c3c(c(N4CCC(c5cnccn5)C4)c(F)cc3c1=O)Oc1cc3ccccc3cc1-2` (stereo partly shown) [compound 356], the IC50 was 0.85 µM.
Same read-out and setting: to `CN1CCN(CCCNC(=O)c2cn3c4c(c(NCCCN5CCOCC5)c(F)cc4c2=O)Oc2cc4c(cc2-3)oc2ccccc24)CC1` [compound 144] belongs 1.75 µM.
Same read-out and setting: the result for `CN1CCCC1CCNC(=O)c1cn2c3cc4c(cc3oc3c(NCCN5CCOCC5)c(F)cc(c1=O)c32)c(=O)c1ccccc14` (stereo not shown) [compound 422] reads 0.75 µM.
As to `O=C(NCCCN1CCOCC1)c1cn2c3c(c(NCCN4CCOCC4)c(F)cc3c1=O)Oc1cc3ccccc3cc1-2` [compound 53], the IC50 is 2.5 µM.
For the compound `COC(=O)C(CO)NC(=O)c1cn2c3cc4c(=O)c5ccccc5c(=O)c4cc3oc3c(NCCN4CCCC4)c(F)cc(c1=O)c32` (stereo not shown) [compound 345], the IC50 came to 0.9 µM.
Consider `O=C(CCN1CCCCC1)N[C@@H]1CCN(c2c(F)cc3c(=O)c(C(=O)NCCN4CCOCC4)cn4c3c2Oc2cc3c(cc2-4)oc2ccccc23)C1` [compound 319], for which the IC50 was found to be 1 µM.
In the case of `CN(C)CCC(=O)N[C@@H]1CCN(c2c(F)cc3c(=O)c(C(=O)NCCCN4CCN(C)CC4)cn4c3c2Oc2cc3c(cc2-4)oc2ccccc23)C1` [compound 175], the IC50 is 1.75 µM.
Still for that read-out and setting: to `CN(C)CCCCNc1ccc2c(=O)c(C(=O)NC3CC(C)(C)NC(C)(C)C3)cn3c2c1Oc1cc2ccccc2cc1-3` [compound 276] belongs 1.75 µM; to `CN(C)CCCCNc1c(F)cc2c(=O)c(C(=O)N3CC[C@H](N)C3)cn3c4cc5c(cc4oc1c23)c(=O)c1ccccc15` [compound 217], 1.75 µM; to `CN1CCCC1CCNc1c(F)cc2c(=O)c(C(=O)NCCN3CCOCC3)cn3c2c1Oc1c-3ccc2ccccc12` (stereo not shown) [compound 134], 1.75 µM.
On the same count and under the same terms, the result for `O=C(NCCN1CCOCC1)c1cn2c3c(c(NCCN4CCCC4)ccc3c1=O)Oc1cc3ccccc3cc1-2` [compound 268] reads 1.75 µM; that for `CN(C)CCCCNC(=O)c1cn2c3c(c(N)c(F)c(NCCCN4CCOCC4)c3c1=O)Oc1cc3ccccc3cc1-2` [compound 192], 1.75 µM; that for `CN1CCCC1CCNC(=O)c1cn2c3c(c(NCCc4c[nH]c5ccccc45)c(F)cc3c1=O)Oc1cc3ccccc3cc1-2` (stereo not shown) [compound 287], 1.75 µM.
Still for that read-out and setting: to `N=C(N)NCCNC(=O)c1cn2c3c(c(NCCN4CCCC4)c(F)cc3c1=O)Oc1cc3ccccc3cc1-2` [compound 561] belongs 0.34 µM; to `N=C(N)NCC1CCCC(CNC(=O)c2cn3c4c(c(N5CCC(N)C5)c(F)cc4c2=O)Oc2cc4ccccc4cc2-3)C1` (stereo not shown) [compound 560], 0.37 µM; to `CN1CCCC1CCNC(=O)c1cn2c3c(c(N4CC[C@@H](NC(=O)OC(C)(C)C)C4)c(F)cc3c1=O)Oc1c-2ccc2ccccc12` (stereo partly shown) [compound 132], 1.75 µM.
In the case of `CC(C)(C)OC(=O)N[C@@H]1CCN(c2c(F)cc3c(=O)c(C(=O)NCCCCN)cn4c3c2Oc2cc3ccccc3cc2-4)C1` [compound 210], the IC50 was found to be 1.75 µM.
In the case of `CN1CCN(CCCNC(=O)c2cn3c4c(c(NCCN5CCCC5)c(F)cc4c2=O)Oc2c-3ccc3ccccc23)CC1` [compound 399], the IC50 is 0.75 µM.

Source of the values: patent US7507727B2, “Substituted quinobenzoxazine analogs and methods of using thereof” (Cylene Pharmaceuticals, Inc., priority 2003, dated 2009).
